Molecules are shown by their SMILES. In brackets after ≈: the same amount, converted by molar mass. Where a name gives a salt, the structure may show the parent alone.

Test [1] relates to mouse allogenic MLR (BALB/c mouse spleen cells stimulated with C57BL/6 mouse spleen cells). In words: mouse allogenic mixed lymphocyte reaction (MLR), 3H-thymidine uptake. Type of test: cell-based. As for the experimental part: The immunosuppressive activity of the compounds was assayed on the basis of mouse allogenic mixed lymphocyte reaction (hereinafter sometimes abbreviated as MLR). Mouse allogenic MRL was carried out using a mixed culture of BALB/c mouse (H-2^d) spleen cells as the responder cells and mitomycin C-treated C57BL/6 ([…]) mouse spleen cells as the stimulator cells in equal amounts.
The responder cells were prepared as follows:
The spleen was resected from 5- to 6-week-old BALB/c mice, and single cell suspension of spleen cells was prepared by using the RPMI1640 culture medium (containing 60 μg/ml of kanamycin sulfate, 2 mM of L-glutamine, 10 mM of N-2-hydroxyethylpiperazine-N'-2-ethanesulphonate (HEPES) and 0.1% sodium hydrogencarbonate) to which heat-inactivated fetal calf serum (hereinafter sometimes abbreviated as FCS) had been added to 5%. After hemolytic treatment, the cell suspension was adjusted to a concentration of 10^7 cells/ml with the RPMI1640 culture medium supplemented with 10^-4 M 2-mercapto-ethanol and 20% FCS, and was used as the responder cell suspension.
The stimulator cells were prepared as follows: The spleen was resected from 5- to 6-week-old male C57BL/6 mice, and a single cell suspension of spleen cells was prepared by using the RPMI1640 culture medium. After hemolytic treatment, the cells were treated with 40 μg/ml of mitomycin C at 37° C. for 60 minutes. After washing three times, the cell suspension was adjusted to a concentration of 10^7 cells/ml with the RPMI1640 culture medium supplemented with 10^-4 M 2-mercapto-ethanol and 20% FCS, and was used as the stimulator cell suspension.
The blastogenesis of lymphocytes was assayed using ^3 H-thymidine uptake as an index. That is, after termination of culture, 18.5 KBq/well of ^3 H-thymidine was added thereto and the suspension was cultured for 4 hours. Cells were harvested by a cell-harvester, and the radioactivity incorporated into the cells was determined by a liquid scintillation counter, which was used as an index of blastogenesis of lymphocytes in the mouse allogenic MLR. The suppression of the mouse allogenic MLR was evaluated by calculating the percent suppression by the following formula.
The test substance dissolved in methanol was diluted with the RPMI1640 culture medium and put to use.

In test [2] the test system is IL-2 production in PHA-stimulated mouse spleen cells. Put plainly: suppression of IL-2 production in PHA-stimulated mouse spleen cells. Format: cell-based. How it is done:
(§1) The suppression of IL-2 and IL-3 production in the mitogen-stimulated mouse spleen cells was examined as follows:
(§2) The spleen was resected from 5- to 8-week-old male C3H/HeN mice, and a single cell suspension of spleen cells was prepared by using the RPMI1640 culture medium. After hemolytic treatment, the concentration of the suspension was adjusted to 10^7 cells/ml by using the RPMI1640 culture medium supplemented with 20% FCS, to which 10 μg/ml of phytohemagglutinin (PHA) was added as mitogen. […] After termination of culture, the supernatant was collected and used as the culture supernatant of PHA-stimulated mouse spleen cells.
The IL-2 activity in the culture supernatant of PHA-stimulated mouse spleen cells was assayed as follows:
IL-2 dependent mouse cell line CTLL-2 cells were suspended in the RPMI1640 culture medium supplemented with 30% FCS to the concentration of 2×10^5 cells/ml. One hundred μl of the cell suspension and 100 μl of the two-fold serial dilution of the culture supernatant of PHA-stimulated mouse spleen cells were added to a 96-well flat-bottomed microtest plate. […] The IL-2 activity is expressed in U/ml as the dilution at which the absorbancy measured by MTT method was 50% of the maximum.

The subject of test [3] is IL-3 production in PHA-stimulated mouse spleen cells. In words: suppression of IL-3 production in PHA-stimulated mouse spleen cells. Format: cell-based. As for the experimental part: as §1, §2
The IL-3 activity was assayed as follows:
IL-3-dependent mouse cell line FDC-P2 cells were suspended in the RPMI1640 culture medium supplemented with 10% FCS to the concentration of 2×10^5 cells/ml. One hundred μl of the cell suspension and 100 μl of the two-fold serial dilution of the culture supernatant of PHA-stimulated mouse spleen cells described above were added to a 96-well flat-bottomed microtest plate. […] The IL-3 activity is expressed in U/ml as the dilution at which the absorbancy measured by MTT method was 50% of the maximum.

The test system of test [4] is allo-reactive cytotoxic T cells in spleen of EL4-immunized BALB/c mice. Put plainly: suppression of allo-reactive cytotoxic T cells induced by immunization of mouse with allogenic cells. Format: in vivo. The conditions noted are these: Table 9F. As for the experimental part: Male 5- to 7-week-old BALB/c mice (H-2^d) were immunized with leukemia cell EL4 derived from C57BL/6 mice (H-2^b) (10^7 cells/mouse, intraperitoneal administration), and the test substance was administered intraperitoneally 5 times at the doses of 0.001 to 3 mg/kg/day or orally at the doses of 0.3 to 10 mg/kg/day from the day of immunization. Nine to ten days after immunization, the spleen was resected from the mice to prepare a single cell suspension and the suspension was used as effector cell suspension. The ^51 Cr-release assay was carried out in the same way as in Experiment Example 3, using EL4 cells as the target cells to measure the cytotoxic activity.
The activity of allo-reactive cytotoxic T cell is indicated by lytic unit (LU) per spleen. One lytic unit (LU) is defined as the number of effector cells required to cause 25% lysis of 5×10^3 target cells. At the same time, the body weight of mouse and number of spleen cells were also determined.

Test [5] deals with allo-specific cytotoxic antibody in serum of EL4-immunized BALB/c mice. In words: suppression of allo-specific cytotoxic antibody production induced by allogenic cell immunization of mouse. Format: in vivo. As for the experimental part: Male 5- to 7-week-old BALB/c mice were immunized with leukemia cell EL4 derived from C57BL/6 mice (10^7 cells/mouse, intraperitoneal administration) in the same way as in Experiment Example 9, and the […] Nine to ten days after immunization, a serum was collected from the mice. Fifty μl of the two-fold serial dilution of the serum, 50 μl of a guinea pig complement and EL4 cell suspension labelled with ^51 Cr as the target cell (5×10^4 cells/ml, 100 μl) were together added to a 96-well microtest plate. After incubation at 37° C. for 1 hour, the amount of ^51 Cr released in the supernatant was measured, and the complement-dependent cytotoxicity was calculated by the following formula. [formula]
The value of allo-specific cytotoxic antibody determined as above was expressed by the titer calculated on the basis of the concentration at which the releasing amount of ^51 Cr was 50% of that of ^51 Cr-labelled target cells treated with 0.1 N HCl.

Where [6] appears, read: Mus musculus, 24 h, 0.001 μg/ml, read-out: Suppression.
The mark [7] stands for this setting: Mus musculus, 24 h, 0.01 μg/ml, read-out: Suppression.
Setting [8] is: Mus musculus, 24 h, 0.1 μg/ml, read-out: Suppression.
Where [9] appears, read: Mus musculus, 24 h, 1 μg/ml, read-out: Suppression.
[10] abbreviates: 0.003 mg/kg/day iv × 9, Table 10F.
Where [11] appears, read: 0.01 mg/kg/day iv × 9, Table 10F.
The mark [12] stands for this setting: 0.03 mg/kg/day ip × 5, Table 10E.
Setting [13] is: 0.03 mg/kg/day iv × 9, Table 10F.
Where [14] appears, read: 0.1 mg/kg/day ip × 5, Table 10E.
Where [15] appears, read: 0.1 mg/kg/day iv × 9, Table 10F.
Setting [16] is: 0.3 mg/kg/day ip × 5, Table 10E.
The mark [17] stands for this setting: 0.3 mg/kg/day iv × 9, Table 10F.

`N[C@](CO)(C(=O)O)[C@@H](O)[C@H](O)CCO` [Example 6]: the 3H-thymidine uptake in test [1] (0.0001 μg/ml, Table 1A) is listed as 16771 cpm; in test [1] (0.001 μg/ml, Table 1A), 13692 cpm; in test [1] (0.01 μg/ml, Table 1A), 13806 cpm; in test [1] (0.1 μg/ml, Table 1A) it was 14508 cpm; in test [1] (1 μg/ml, Table 1A), 7545 cpm. Besides, the inhibition at 0.0001 µg/mL in test [1] (Mus musculus, Lymphocyte, 0.0001 μg/ml, Table 1A, read-out: Suppression) is 9.9%. The inhibition at 0.001 µg/mL in test [1] (Mus musculus, Lymphocyte, 0.001 μg/ml, Table 1A, read-out: Suppression) turned out to be 18.5%; in test [2] (setting [6]), 6.7%; in test [3] (setting [6]) it was 2.9%. In addition, the inhibition at 0.01 µg/mL in test [1] (Mus musculus, Lymphocyte, 0.01 μg/ml, Table 1A, read-out: Suppression) turned out to be 27.5%; in test [2] (setting [7]) it was 24.4%; in test [3] (setting [7]), 4.5%. For the same molecule, the inhibition at 0.1 µg/mL in test [1] (Mus musculus, Lymphocyte, 0.1 μg/ml, Table 1A, read-out: Suppression) was found to be 23.4%; in test [2] (setting [8]), 29.6%; in test [3] (setting [8]) it was 4.9%. Also, the inhibition at 1 µg/mL is 64.8% in test [1] (Mus musculus, Lymphocyte, 1 μg/ml, Table 1A, read-out: Suppression); 38.5% in test [2] (setting [9]); 18.4% in test [3] (setting [9]). Moreover, the IC50 in test [1] (Mus musculus, Lymphocyte, read-out: 50%-inhibition concentration (IC50) in mouse allogenic MLR) was 0.045 µg/mL (≈ 0.215 µM). The IL-2 activity in test [2] (0.001 μg/ml) is recorded as 12.6 U/ml; in test [2] (0.01 μg/ml), 10.2 U/ml; in test [2] (0.1 μg/ml), 9.5 U/ml; in test [2] (1 μg/ml) it was 8.3 U/ml. For the same molecule, the IL-3 activity turned out to be 23.8 U/ml in test [3] (0.001 μg/ml), 23.4 U/ml in test [3] (0.01 μg/ml), 23.3 U/ml in test [3] (0.1 μg/ml) and 20.0 U/ml in test [3] (1 μg/ml).
Turning to `CCCCCCCCCCCCC/C=C/C[C@@H](O)[C@H](O)[C@@](N)(CO)C(=O)O` [potassium salt of compound of Example 5], the 3H-thymidine uptake worked out at 5622 ± 898 cpm in test [1] (0.0001 μg/ml, Table 1B); 4984 ± 3755 cpm in test [1] (0.001 μg/ml, Table 1B); 1324 ± 16 cpm in test [1] (0.01 μg/ml, Table 1B); 787 ± 257 cpm in test [1] (0.1 μg/ml, Table 1B); 783 ± 28 cpm in test [1] (1 μg/ml, Table 1B). Also, the Suppression in test [1] (0.0001 μg/ml, Table 1B) was found to be 0%; in test [1] (0.001 μg/ml, Table 1B), 7.5%; in test [1] (0.01 μg/ml, Table 1B) it was 85.5%; in test [1] (0.1 μg/ml, Table 1B), 97.0%; in test [1] (1 μg/ml, Table 1B) it was 97.1%.
`CCCCCCCCCCCCC/C=C/C[C@@H](O)[C@H](O)[C@@](N)(CO)C(=O)O` [sodium salt of the compound of Example 5]: in test [1] (Table 1B), the “suppressive activity of the sodium salt relative to that of the compound of Example 5” value was “almost the equivalent suppressive activity”. Further, the “induction of allo-reactive cytotoxic T cells, sodium salt relative to the compound of Example 5 (in words)” value in test [4] is given as “suppressive activity almost equivalent to that of the compound of Example 5 other than sodium salt”. Besides, the “Allogenic cell-specific antibody in serum, suppression” value in test [5] (setting [10]) is given as 6.0%; in test [5] (setting [11]) it was 39.4%; in test [5] (setting [12]), 50.3%; in test [5] (setting [13]), 68.5%; in test [5] (setting [14]), 73.5%; in test [5] (setting [15]), 84.1%. For the same molecule, the “Allogenic cell-specific antibody in serum, suppression” value is reported as 88.9% in test [5] (setting [16]) and 81.7% in test [5] (setting [17]). In addition, the “Allogenic cell-specific antibody in serum, titer” value in test [5] (setting [10]) was 236 ± 76; in test [5] (setting [11]), 152 ± 27; in test [5] (setting [12]) it was 94 ± 14; in test [5] (setting [13]), 79 ± 50; in test [5] (setting [14]), 50 ± 4; in test [5] (setting [15]), 40 ± 23. Further, the results for the “Allogenic cell-specific antibody in serum, titer” value in test [5] (setting [16]) and in test [5] (setting [17]) were 21 ± 8 and 46 ± 11, respectively. The “production of allo-specific cytotoxic antibody, sodium salt relative to the compound of Example 5 (in words)” value in test [5] (Table 10E) was “suppressive activity almost equivalent to that of the compound of Example 5 other than sodium salt”.

The values are drawn from patent US5068247A, “2-aminopentanoic acid compounds and their use as immunosuppressants” (priority 1989, dated 1991).
